Test [1] concerns NQO1 mRNA in BEAS-2B cells. Description: Beas2B NQO1 mRNA cell based assay. On the set-up: species or system human. Conditions: Homo sapiens, BEAS-2B, 24 h, 24 h compound treatment, increase in NQO1 mRNA vs vehicle (0.1% DMSO), read-out: EC50. The method, boiled down:
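Relative NQO1 transcript level derived by ΔΔCT with human β-actin as internal control, using direct-lysate one-step RT-qPCR. Cells were BEAS-2B, plated overnight then treated with compound for 24 h.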

For test [2], the target named is human KEAP1 (N-term, residues 321-609) (Homo sapiens, UniProt Q14145). Description: biochemical.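 Further: fluorescence polarization competition assay of Kelch domain binding to NRF2, 12-point 1:3 dilution series from 10 µM, read after 1 h at room temperature, floor 10 nM.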
Chain of human KEAP1 (N-term, residues 321-609) (Q14145 321-609): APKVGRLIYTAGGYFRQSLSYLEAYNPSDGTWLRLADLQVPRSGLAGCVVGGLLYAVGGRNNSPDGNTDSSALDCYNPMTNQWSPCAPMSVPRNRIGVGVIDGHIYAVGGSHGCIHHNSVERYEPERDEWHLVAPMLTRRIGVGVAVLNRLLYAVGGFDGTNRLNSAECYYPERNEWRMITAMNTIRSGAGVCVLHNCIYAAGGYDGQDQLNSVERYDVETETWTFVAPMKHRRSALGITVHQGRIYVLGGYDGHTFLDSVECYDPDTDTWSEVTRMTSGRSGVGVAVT

In the case of `Cc1cnoc1COc1ccc(Cl)c2c1[C@@H](CN1CCCC1=O)N(C(=O)[C@@H]1CCCC[C@]1(C)C(=O)O)CC2` [Example 126, (1S,2R)-2-((S)-5-chloro-8-((4-methylisoxazol-5-yl)methoxy)-1-((2-oxopyrrolidin-1-yl)methyl)-1,2,3,4-tetrahydroisoquinoline-2-carbonyl)-1-methylcyclohexane-1-carboxylic acid], the EC50 in test [1] came out at 32 nM. The IC50 in test [2] was 5.6 nM.

With `COCc1c(COc2ccc(Cl)c3c2[C@@H](CN2CCCC2=O)N(C(=O)[C@@H]2CCCC[C@]2(C)C(=O)O)CC3)nnn1C` [Example 127, (1S,2R)-2-((S)-5-chloro-8-((5-(methoxymethyl)-1-methyl-1H-1,2,3-triazol-4-yl)methoxy)-1-((2-oxopyrrolidin-1-yl)methyl)-1,2,3,4-tetrahydroisoquinoline-2-carbonyl)-1-methylcyclohexane-1-carboxylic acid], the EC50 in test [1] was 2.6 nM. Moreover, it took 7 nM to reach half-maximal inhibition in test [2] (IC50).

As to `COCCc1c(COc2ccc(Cl)c3c2[C@@H](CN2CCCC2=O)N(C(=O)[C@@H]2CCCC[C@]2(C)C(=O)O)CC3)nnn1C` [Example 128, (1S,2R)-2-((i)-5-chloro-8-((5-(2-methoxyethyl)-1-methyl-1H-1,2,3-triazol-4-yl)methoxy)-1-((2-oxopyrrolidin-1-yl)methyl)-1,2,3,4-tetrahydroisoquinoline-2-carbonyl)-1-methylcyclohexane-1-carboxylic acid], the concentration for a half-maximal effect (EC50) in test [1] was 1.9 nM. In test [2], this compound registered an IC50 of 8.7 nM.

As to `Cn1nnc(COc2ccc(Cl)c3c2[C@@H](CN2CCCC2=O)N(C(=O)[C@@H]2CCCC[C@]2(C)C(=O)O)CC3)c1C1CC1` [Example 129, (1S,2R)-2-((S)-5-chloro-8-((5-cyclopropyl-1-methyl-1H-1,2,3-triazol-4-yl)methoxy)-1-((2-oxopyrrolidin-1-yl)methyl)-1,2,3,4-tetrahydroisoquinoline-2-carbonyl)-1-methylcyclohexane-1-carboxylic acid], the EC50 in test [1] was 0.95 nM. This compound returned an IC50 in test [2] of 5.5 nM.

As for `C[C@H]1CCN(C[C@@H]2c3c(OCc4nnn(C)c4C(F)(F)F)ccc(Cl)c3CCN2C(=O)[C@@H]2CCCC[C@]2(C)C(=O)O)C1=O` [Example 130, (1S,2R)-2-((S)-5-chloro-1-(((S)-3-methyl-2-oxopyrrolidin-1-yl)methyl)-8-((1-methyl-5-(trifluoromethyl)-1H-1,2,3-triazol-4-yl)methoxy)-1,2,3,4-tetrahydroisoquinoline-2-carbonyl)-1-methylcyclohexane-1-carboxylic acid], the EC50 in test [1] was 21 nM. The IC50 in test [2] was 6.7 nM.

In the case of `C[C@@H]1CCN(C[C@@H]2c3c(OCc4nnn(C)c4C(F)(F)F)ccc(Cl)c3CCN2C(=O)[C@@H]2CCCC[C@]2(C)C(=O)O)C1=O` [Example 131, (1S,2R)-2-((S)-5-chloro-1-(((R)-3-methyl-2-oxopyrrolidin-1-yl)methyl)-8-((1-methyl-5-(trifluoromethyl)-1H-1,2,3-triazol-4-yl)methoxy)-1,2,3,4-tetrahydroisoquinoline-2-carbonyl)-1-methylcyclohexane-1-carboxylic acid], in test [1], the EC50 is 200 nM. Half-maximal inhibition in test [2] (IC50) was put at 12 nM.

Consider `C[C@@H]1CC(=O)N(C[C@@H]2c3c(OCc4nnn(C)c4C(F)(F)F)ccc(Cl)c3CCN2C(=O)[C@@H]2CCCC[C@]2(C)C(=O)O)C1` [Example 132, (1S,2R)-2-((S)-5-chloro-1-(((R)-4-methyl-2-oxopyrrolidin-1-yl)methyl)-8-((1-methyl-5-(trifluoromethyl)-1H-1,2,3-triazol-4-yl)methoxy)-1,2,3,4-tetrahydroisoquinoline-2-carbonyl)-1-methylcyclohexane-1-carboxylic acid], for which the EC50 in test [1] was 5.7 nM. In addition, half-maximal inhibition in test [2] (IC50) was put at 5.1 nM.

For the compound `C[C@]1(C(=O)O)CCCC[C@H]1C(=O)N1CCc2c(Cl)ccc(OCc3nnn(C4CC4)c3C(F)F)c2[C@H]1CN1CCCC1=O` [Example 134, (1S,2R)-2-((S)-5-chloro-8-((1-cyclopropyl-5-(difluoromethyl)-1H-1,2,3-triazol-4-yl)methoxy)-1-((2-oxopyrrolidin-1-yl)methyl)-1,2,3,4-tetrahydroisoquinoline-2-carbonyl)-1-methylcyclohexane-1-carboxylic acid], the EC50 in test [1] turned out to be 2.2 nM. Further, 8.2 nM corresponded to half-maximal inhibition in test [2] (IC50).

Regarding `C[C@]1(C(=O)O)CCCC[C@H]1C(=O)N1CCc2c(Cl)ccc(OCc3cncnc3C(F)F)c2[C@H]1CN1CC2(CC2)CC1=O` [Example 135, (1S,2R)-2-((S)-5-chloro-8-((4-(difluoromethyl)pyrimidin-5-yl)methoxy)-1-((6-oxo-5-azaspiro[2.4]heptan-5-yl)methyl)-1,2,3,4-tetrahydroisoquinoline-2-carbonyl)-1-methylcyclohexane-1-carboxylic acid], the EC50 in test [1] came out at 0.91 nM. In test [2], this compound had an IC50 of 5.3 nM.

As for `CC1(C)CC(COc2ccc(Cl)c3c2[C@@H](CN2CC4(CC4)CC2=O)N(C(=O)[C@@H]2CCCC[C@]2(C)C(=O)O)CC3)=NO1` [Example 136, (1S,2R)-2-((S)-5-chloro-8-((5,5-dimethyl-4,5-dihydroisoxazol-3-yl)methoxy)-1-((6-oxo-5-azaspiro[2.4]heptan-5-yl)methyl)-1,2,3,4-tetrahydroisoquinoline-2-carbonyl)-1-methylcyclohexane-1-carboxylic acid], in test [1], the EC50 worked out at 1700 nM. The same compound came in with an IC50 in test [2] of 22 nM.

Regarding `Cc1conc1COc1ccc(Cl)c2c1[C@@H](CN1CCCC1=O)N(C(=O)[C@@H]1CCCC[C@]1(C)C(=O)O)CC2` [Example 137, (1S,2R)-2-((S)-5-chloro-8-((4-methylisoxazol-3-yl)methoxy)-1-((2-oxopyrrolidin-1-yl)methyl)-1,2,3,4-tetrahydroisoquinoline-2-carbonyl)-1-methylcyclohexane-1-carboxylic acid], the EC50 in test [1] turned out to be 6.7 nM. Further, the IC50 in test [2] was determined as 6.3 nM.

With `C[C@]1(C(=O)O)CCCC[C@H]1C(=O)N1CCc2c(Cl)ccc(OCc3noc4c3CCCC4)c2[C@H]1CN1CCCC1=O` [Example 138, (1S,2R)-2-((S)-5-chloro-1-((2-oxopyrrolidin-1-yl)methyl)-8-((4,5,6,7-tetrahydrobenzo[d]isoxazol-3-yl)methoxy)-1,2,3,4-tetrahydroisoquinoline-2-carbonyl)-1-methylcyclohexane-1-carboxylic acid], the EC50 in test [1] amounted to 0.8 nM. Also, the IC50 in test [2] was 7.9 nM.

For the compound `Cn1nnc(COc2ccc(Cl)c3c2[C@@H](CN2CC4(CC4)CC2=O)N(C(=O)[C@@H]2OCCC[C@@H]2C(=O)O)CC3)c1C(F)F` [Example 140, (2R,3S)-2-((S)-5-chloro-8-((5-(difluoromethyl)-1-methyl-1H-1,2,3-triazol-4-yl)methoxy)-1-((6-oxo-5-azaspiro[2.4]heptan-5-yl)methyl)-1,2,3,4-tetrahydroisoquinoline-2-carbonyl)tetrahydro-2H-pyran-3-carboxylic acid], the EC50 in test [1] was 150 nM. The IC50 in test [2] stood at 4.5 nM.

`Cn1nnc(COc2ccc(Cl)c3c2[C@@H](CN2CCCC2=O)N(C(=O)[C@@H]2CC4CCC2(C(=O)O)CC4)CC3)c1C(F)F` [Example 141, (R)-2-((S)-5-chloro-8-((5-(difluoromethyl)-1-methyl-1H-1,2,3-triazol-4-yl)methoxy)-1-((2-oxopyrrolidin-1-yl)methyl)-1,2,3,4-tetrahydroisoquinoline-2-carbonyl)bicyclo[2.2.2]octane-1-carboxylic acid]: in test [1], the EC50 was found to be 35 nM. In test [2], this compound gave an IC50 of 7 nM.

Turning to `[2H]C1([2H])CC[C@](C)(C(=O)O)[C@H](C(=O)N2CCc3c(Cl)ccc(OCc4nnn(C)c4C(F)F)c3[C@H]2CN2CC3(CC3)CC2=O)C1` [Example 142, (1S,2R)-2-((S)-5-chloro-8-((5-(difluoromethyl)-1-methyl-1H-1,2,3-triazol-4-yl)methoxy)-1-((6-oxo-5-azaspiro[2.4]heptan-5-yl)methyl)-1,2,3,4-tetrahydroisoquinoline-2-carbonyl)-1-methylcyclohexane-1-carboxylic-4,4-d2 acid], the EC50 in test [1] was found to be 0.21 nM. The compound further came in with an IC50 in test [2] of 5 nM.

With `Cc1c(COc2c(F)cc(Cl)c3c2[C@@H](CN2CC4(CC4)CC2=O)N(C(=O)[C@@H]2CCCC[C@]2(C)C(=O)O)CC3)nnn1C` [Example 143, (1S,2R)-2-((S)-5-chloro-8-((1,5-dimethyl-1H-1,2,3-triazol-4-yl)methoxy)-7-fluoro-1-((6-oxo-5-azaspiro[2.4]heptan-5-yl)methyl)-1,2,3,4-tetrahydroisoquinoline-2-carbonyl)-1-methylcyclohexane-1-carboxylic acid], the EC50 in test [1] stood at 0.05 nM. In addition, the IC50 in test [2] is 5.2 nM.

With `COCCn1nnc(COc2ccc(Cl)c3c2[C@@H](CN2CCCC2=O)N(C(=O)[C@@H]2CCCC[C@]2(C)C(=O)O)CC3)c1C(F)F` [Example 145, (1S,2R)-2-((S)-5-chloro-8-((5-(difluoromethyl)-1-(2-methoxyethyl)-1H-1,2,3-triazol-4-yl)methoxy)-1-((2-oxopyrrolidin-1-yl)methyl)-1,2,3,4-tetrahydroisoquinoline-2-carbonyl)-1-methylcyclohexane-1-carboxylic acid], the EC50 in test [1] is 4.9 nM. This compound showed an IC50 in test [2] of 6.4 nM.

For `C[C@]1(C(=O)O)CCCC[C@H]1C(=O)N1CCc2c(Cl)cc(F)c(OCc3nnn4c3CCC4)c2[C@H]1CN1CC2(CC2)CC1=O` [Example 146, (1S,2R)-2-((S)-5-chloro-8-((5,6-dihydro-4H-pyrrolo[1,2-c][1,2,3]triazol-3-yl)methoxy)-7-fluoro-1-((6-oxo-5-azaspiro[2.4]heptan-5-yl)methyl)-1,2,3,4-tetrahydroisoquinoline-2-carbonyl)-1-methylcyclohexane-1-carboxylic acid], the EC50 in test [1] worked out at 0.23 nM. Half-maximal inhibition in test [2] (IC50) required 5.7 nM.

By EC50 is commonly meant the midpoint of the concentration-response curve. By IC50 is commonly meant the midpoint of a concentration-inhibition curve. A high value points to lower potency.

The values are drawn from patent US12098148B2, “Therapeutic compounds” (C4X Discovery Limited, priority 2018, dated 2024).
